Data set [1] has as its system Salmonella typhi ATCC19430. Description: Antimicrobial MIC, agar dilution. Type of data set: cell-based. The following applies: Salmonella enterica, read-out: Minimum inhibitory concentration (MIC). For orientation: In agar dilution, organisms are placed on agar that contains the substance at set levels.
For data set [2], the system named is PHA-stimulated splenocytes. In words: Proliferative response of PHA-stimulated splenocytes (MTT assay). The class given is cell-based. The conditions noted are these: PHA 5 μg/ml, 72 hr; compounds at 5 μM (method says 10 μM); ratio of O.D. versus vehicle control. Here is the method: Immunomodulatory effects of the synthesized curcumin conjugates on the proliferative response of PHA-stimulated splenocytes were evaluated. The effect of curcumin and its amino acid conjugates on splenocyte viability and proliferation in response to a T cell miotgen (Phytohaemagglutinin; PHA) was evaluated using the MTT assay. Freshly prepared splenocytes (1×10^6 cells/200 μl/well) were cultured in a 96-well U-bottom microtiter plate (Nunc) in complete medium. Cells were treated with tested compounds at a final concentration of 10 μM, vehicle (DMSO) or left untreated in triplicate then incubated at 37° C. and 5% CO2. When testing the immunoregulatory effects of the compounds on splenocyte stimulation, PHA (5 μg/ml) was added to the culture media to induce T cell proliferation. The proliferative response to PHA+vehicle and vehicle alone served as controls. After 72 hr, media were removed after pelleting the cells by centrifugation and MTT salt solution (5 mg/ml) was added into each well then incubated at 37° C. for 4 h. Afterwards, formazan crystals were dissolved by adding 150 μl 10% sodium dodecyl sulfate (SDS). Absorbance was measured with a spectrophotometer at 570 nm and reference wavelength of 690 nm.
Splenocyte stimulation index was determined as the ratio of O.D. values in tested compounds versus vehicle control cultures.
(Formazan colour is commonly taken as a measure of viable cells.)

Data set [3] relates to Streptococcus pyogenes ATCC19615. Description: Antimicrobial MIC, agar dilution.
Data set [4] deals with MCF7 (breast) carcinoma cell line. Description: Anti-tumor properties, MTT. The class given is cell-based. The conditions noted are these: Homo sapiens, 72 h; for activity at 100 µM: MCF7, 100 μM, read-out: Percentage growth of tumor cell lines treated with the tested compounds (±SD). As to the method:
(§1) Anti-tumor properties of curcumin conjugates were evaluated. The synthesized curcumin-amino acid conjugates and curcumin itself were screened for their antitumor properties against human tumor cell lines utilizing HepG2 (hepatocellular), MCF7 (breast), and HCT116 (colon) carcinoma cell lines by the standard mitochondrial dependent reduction of yellow MTT [3-(4,5-dimethylthiazol-2-yl)-2,5-diphenyl-tetrazolium bromide] to purple formazan technique. Cancer cells were obtained from the Egyptian Company for Production of Vaccines, Sera and Drugs (VACSERA), Cairo, Egypt. Media, chemicals and supplies for the bio-assay were obtained from Biowest, Gibco and Lonza Companies. Cells were suspended in RPMI-1640 medium for HepG2, DMEMF12 for MCF-7, and DMEM for HCT116 in addition to 1% antibiotic-antimycotic mixture (10 […] potassium penicillin, 10 […] streptomycin sulfate and […] amphotericin B), 10% fetal bovine serum and 1% L-glutamine at 37° C., under 5% CO2 and 95% humidity. Cells were seeded at a concentration of 10×10^3 cells per well in fresh complete growth medium in 96-well tissue culture microtiter plates for 24 h. Media was aspirated, 180 μL fresh medium (without serum) were added and cells were incubated with different concentrations of sample to give a final concentration of 100 μM. 0.5% DMSO was used as a negative control and doxorubicin was used as a positive control (standard reference). Triplicate wells were prepared for each individual tested compound/dose. After 72 h of incubation, the medium was aspirated, 40 μL MTT salt (2.5 mg ml^1) were added to each well and incubated for an additional 4 h at 37° C. To stop the reaction and dissolve the formed crystals, 200 μL of 10% sodium dodecyl sulfate (SDS) in deionized water were added to each well and incubated overnight at 37° C. The absorbance was then measured at 595 nm with a reference wavelength of 620 nm. Data were collected as mean values for experiments performed in triplicates for each compound which had been measured by MTT assay.
(§2) The percentage of cell survival was calculated according to equation (4): […]
(§3) The IC50 was determined using Graph-Pad PRISM version-5 software. Statistical calculations for determination of the mean and standard deviation (SD) values were determined by SPSS 16 software.

The test system of data set [5] is HCT116 (colon) carcinoma cell line. In words: Anti-tumor properties, MTT. Type of data set: cell-based. The conditions noted are these: Homo sapiens, HCT-116, 72 h; for activity at 100 µM: HCT116, 100 μM, read-out: Percentage growth of tumor cell lines treated with the tested compounds (±SD). Here is the method: as §1, §2, §3
The subject of data set [6] is HepG2 (hepatocellular) carcinoma cell line. Description: Anti-tumor properties, MTT. The class given is cell-based. The following applies: Homo sapiens, 72 h; for activity at 100 µM: HepG2, 100 μM, read-out: Percentage growth of tumor cell lines treated with the tested compounds (±SD). As to the method: as §1, §2, §3
In data set [7] the test system is lipopolysaccharide-stimulated peritoneal macrophages. In words: Production of nitric oxide by lipopolysaccharide-stimulated peritoneal macrophages (Greiss reagent). Type of data set: cell-based. Set-up: Potency (%): % inhibition of nitric oxide production relative to lipopolysaccharide-stimulated macrophages: concentration or dose not given beside the values. The following applies: LPS-stimulated peritoneal macrophages; for Nitric oxide (nitrite) concentration, μM (average ± SD): 24 h, nitrite by Greiss reagent. Here is the method: The effects of the synthesized curcumin conjugates on the production of nitric oxide (μM) by lipopolysaccharide-stimulated peritoneal macrophages were evaluated.
Two milliliters of macrophage cells were seeded in 12-well tissue culture plates in nitrite-free medium supplemented with 0.1% bovine serum albumin and incubated at 37° C. LPS±epinephrine, norepinephrine, or dopamine at […] concentrations was added to some wells. The concentrations of LPS used ranged from 0.5 to 10 ng/ml. After incubation for 24 h, supernatants were collected for measuring nitric oxide (NO) by spectrophotometry. The production of NO was determined from the accumulation of nitrite (NO2), the metabolic end product of NO metabolism, in the medium using the Greiss reagent. About equal volumes (100 μl) of sample and Greiss reagent (1:1 mixture of 1% sulfanilamide in 5% phosphoric acid, and 0.1% a-naphthylamine in distilled water) were mixed and incubated at room temperature for 15 min, and absorbance was measured at 532 nm on a spectrophotometer.

Data set [8] concerns Candida albicans (local isolate). In words: Antimicrobial MIC, agar dilution. The conditions noted are these: Candida albicans, read-out: Minimum inhibitory concentration (MIC).
For data set [9], the system named is Pseudomonas aeruginosa ATCC27853. Description: Antimicrobial MIC, agar dilution.
In a further data set the test system is MCF-7 cells. In words: Effect on doxorubicin induced cytotoxicity (MTT). The conditions noted are these: for viability at 100 µM: read-out: Percentage of viable cells MCF-7 (average ± SD). Here is the method: The effects of curcumin conjugates on doxorubicin induced cytotoxicity were evaluated. In order to further examine whether curcumin derivatives can enhance conventional chemotherapeutic agents, MCF-7 cells were treated with 100 μM curcumin derivatives alone or in combination with 10 μM doxorubicin (DOX) for 48 hr. Control cultures received only medium, vehicle (DMSO), or vehicle+DOX. The percentage of viable cells was determined by MTT assay according to equation (5): […]

Data set [10] deals with Staphylococcus aureus ATCC25923. In words: Antimicrobial MIC, agar dilution.
The mark [11] stands for this setting: ATCC19615, 18 h, read-out: Minimum inhibitory concentration (MIC).
[12] abbreviates: ATCC19615, read-out: Minimum inhibitory concentration (MIC).
Setting [13] is: ATCC27853, 18 h, read-out: Minimum inhibitory concentration (MIC).
The mark [14] stands for this setting: ATCC27853, read-out: Minimum inhibitory concentration (MIC).
[15] abbreviates: ATCC25923, 18 h, read-out: Minimum inhibitory concentration (MIC).
Where [16] appears, read: ATCC25923, read-out: Minimum inhibitory concentration (MIC).
[17] abbreviates: 10 μM DOX in combination with 100 μM curcumin derivative, 48 hr.

Molecules are shown by their SMILES. Read-outs that look alike come from different tables or passages of the source.

Broadly, the IC50 is the midpoint of a concentration-inhibition curve.

Consider `COc1cc(/C=C/C(=O)CC(=O)/C=C/c2ccc(OC(=O)[C@H](C)NC(=O)OCC3c4ccccc4-c4ccccc43)c(OC)c2)ccc1OC(=O)[C@H](C)NC(=O)OCC1c2ccccc2-c2ccccc21` [Fmoc-Ala-Cur, ((1E,6E)-3,5-dioxohepta-1,6-diene-1,7-diyl)bis(2-methoxy-4,1-phenylene) (2S,2′S)-bis(2-((((9H-fluoren-9-yl)methoxy)carbonyl)amino)propanoate)], for which the MIC is 0.25 µg/mL in data set [1] (18 h); 0.262 µM in data set [1]; 0.5 µg/mL in [3] (setting [11]); 0.524 µM in [3] (setting [12]); 1 µg/mL in data set [8] (18 h); 1.05 µM in data set [8]. The MIC in [9] (setting [13]) turned out to be 0.25 µg/mL; in [9] (setting [14]), 0.262 µM; in data set [10] (setting [15]), 0.5 µg/mL; in data set [10] (setting [16]), 0.524 µM. The “Stimulation Index (average ± SD)” value in [2] is 2.22 ± 0.41. Also, the activity at 100 µM stood at 73.6 ± 2.2% in data set [4], 96.9 ± 3.2% in data set [5] and 78.3 ± 5.1% in data set [6]. In addition, the “Potency (%): % inhibition of nitric oxide production relative to lipopolysaccharide-stimulated macrophages” value in data set [7] amounted to 20.22%. Besides, in data set [7], the “Nitric oxide (nitrite) concentration, μM (average ± SD)” value (“Nitric oxide … (average ± SD)” below) came out at 21.79 ± 2.71 µM. For the same compound, in the data set with MCF-7 cells (Homo sapiens, MCF7, 48 h), the viability at 100 µM came to 99.2 ± 3.65%.
For `COc1cc(/C=C/C(=O)CC(=O)/C=C/c2ccc(OC(=O)[C@@H](NC(=O)OCC3c4ccccc4-c4ccccc43)C(C)C)c(OC)c2)ccc1OC(=O)[C@@H](NC(=O)OCC1c2ccccc2-c2ccccc21)C(C)C` [Fmoc-Val-Cur, ((1E,6E)-3,5-dioxohepta-1,6-diene-1,7-diyl)bis(2-methoxy-4,1-phenylene) (2S,2′S)-bis(2-((((9H-fluoren-9-yl)methoxy)carbonyl)amino)-3-methylbutanoate)], the MIC is 0.5 µg/mL in data set [1] (18 h); 0.494 µM in data set [1]; 0.5 µg/mL in [3] (setting [11]); 0.494 µM in [3] (setting [12]); 0.5 µg/mL in [8] (18 h); 0.494 µM in data set [8]. Further, the MIC is 0.5 µg/mL in data set [9] (setting [13]), 0.494 µM in data set [9] (setting [14]), 0.25 µg/mL in data set [10] (setting [15]) and 0.247 µM in data set [10] (setting [16]). The “Stimulation Index (average ± SD)” value in data set [2] is on record as 2.55 ± 0.13. The activity at 100 µM was determined as 83.2 ± 0.8% in [4], 81.8 ± 5.8% in data set [5] and 116 ± 3.3% in [6]. Besides, the “Potency (%): % inhibition of nitric oxide production relative to lipopolysaccharide-stimulated macrophages” value in data set [7] is 12.46%. For the same compound, the “Nitric oxide … (average ± SD)” value in data set [7] was 23.91 ± 0.87 µM. Moreover, the “Percentage of viable cells MCF-7 (average ± SD)” value (“Percentage … (average ± SD)” for short) in the data set with MCF-7 cells (setting [17]) is recorded as 25.15. Moreover, the viability at 100 µM in the data set with MCF-7 cells (Homo sapiens, MCF7, 48 h) amounted to 100 ± 1.95%.
Take `COc1cccc2c1C(=O)c1c(O)c3c(c(O)c1C2=O)C[C@@](O)(C(=O)CO)C[C@@H]3O[C@H]1C[C@H](N)[C@H](O)[C@H](C)O1` [DOX, doxorubicin, reference compound]: the IC50 in data set [4] (MCF7, MTT, read-out: IC50) was 20.9 µM; in data set [5] (HCT116, MTT, read-out: IC50), 7.17 µM; in [6] (HepG2, MTT, read-out: IC50) it was 34.2 µM. Further, the viability at 10 µM in the data set on MCF-7 cells (Homo sapiens, MCF7, 48 h, read-out: Percentage of viable cells MCF-7 (average ± SD), 10 μM DOX in combination with 100 μM curcumin derivative, 48 hr) amounted to 44.8%. Also, the “Percentage … (average ± SD)” value in the data set on MCF-7 cells (human, 48 h, 100 μM) was found to be 0 ± 0.00.
Regarding `COc1cc(/C=C/C(=O)CC(=O)/C=C/c2ccc(OC(=O)CNC(=O)OCc3ccccc3)c(OC)c2)ccc1OC(=O)CNC(=O)OCc1ccccc1` [Cbz-Gly-Cur, ((1E,6E)-3,5-dioxohepta-1,6-diene-1,7-diyl)bis(2-methoxy-4,1-phenylene) bis(2-(((benzyloxy)carbonyl)amino)acetate)], the MIC in [1] (18 h) worked out at 0.5 µg/mL; in data set [1] it was 0.666 µM; in data set [3] (setting [11]) it was 0.125 µg/mL; in data set [3] (setting [12]), 0.166 µM; in data set [8] (18 h) it was 0.5 µg/mL; in data set [8], 0.666 µM. Moreover, the MIC in data set [9] (setting [13]) came to 1 µg/mL; in data set [9] (setting [14]), 1.33 µM; in [10] (setting [15]) it was 0.125 µg/mL; in data set [10] (setting [16]), 0.166 µM. Also, the “Stimulation Index (average ± SD)” value in data set [2] turned out to be 2.64 ± 0.10. For the same compound, the activity at 100 µM turned out to be 60 ± 2.7% in data set [4], 88.1 ± 2.6% in data set [5] and 79.8 ± 8.8% in [6]. The “Potency (%): % inhibition of nitric oxide production relative to lipopolysaccharide-stimulated macrophages” value in data set [7] was 10.11%. Also, in data set [7], the “Nitric oxide … (average ± SD)” value is 24.55 ± 0.66 µM. Besides, in the data set on MCF-7 cells (setting [17]), the “Percentage … (average ± SD)” value amounted to 45.44 ± 1.88. Further, in the data set with MCF-7 cells (Homo sapiens, MCF7, 48 h), the viability at 100 µM turned out to be 97.4 ± 5.3%.
